Results on nine molecules are retold here after US20230056135A1, “MONOMER AND MULTIMERIC ANTI-HBV AGENTS” (priority 2018, published 2023).

What all share (type): cell-based
One data set has as its system Glutathione levels (GSH). The experiment in a line: Glutathione levels in Huh7 cells (GSH-Glo Glutathione Assay). The conditions noted are these: for GSH levels relative to untreated control: 22 h treatment; for inhibition at 10 µM: Homo sapiens, Huh-7, read-out: GSH levels relative to untreated control (% inhibition at 10 μM), 22 h, 10 μM. As for the experimental part: Glutathione levels (GSH) were measured in Huh7 cells after 22 h treatment with 10 μM CAMs (GSH-Glo™ Glutathione Assay—Promega). Treatment of Huh7 with 10 μM positive control, L-buthionine-sulfoximine, reduced cellular GSH levels by 58% (data not shown); Samples were tested in triplicates.

Another data set relates to human PBM. The experiment in a line: Cellular toxicity assay in human PBM cells. As for the experimental part:
(§1) The toxicity of the compounds was assessed in Vero, human PBM, CEM (human lymphoblastoid), MT-2, and HepG2 cells, as described previously (see Schinazi R. F., Sommadossi J.-P., Saalmann V., Cannon D. L., Xie M.-Y., Hart G. C., Smith G. A. & Hahn E. F. Antimicrob. Agents Chemother. 1990, 34, 1061-67). Cycloheximide was included as positive cytotoxic control, and untreated cells exposed to solvent were included as negative controls. The cytotoxicity IC50 was obtained from the concentration-response curve using the median effective method described previously (see Chou T.-C. & Talalay P. Adv. Enzyme Regul. 1984, 22, 27-55; Belen'kii M. S. & Schinazi R. F. Antiviral Res. 1994, 25, 1-11).

Data set [1] relates to CEM (human lymphoblastoid). The experiment in a line: Cellular toxicity assay in CEM cells. Here is the method:
as §1

A further data set deals with HepG2 cells. The experiment in a line: Cellular toxicity assay in HepG2 cells. Here is the method:
as §1

The subject of a further data set is wild type HBV. The experiment in a line: Anti-HBV assay in AD-38 cell line (HBV in culture supernatant). The conditions noted are these: AD-38 cell line, Tet (-); for EC50: read-out: Anti-HBV activity EC50; for EC90: read-out: Anti-HBV activity EC90. As for the experimental part:
The anti-HBV activity of the compounds was determined by treating the AD-38 cell line carrying wild type HBV under the control of tetracycline (see Ladner S. K., Otto M. J., Barker C. S., Zaifert K., Wang G. H., Guo J. T., Seeger C. & King R. W. Antimicrob. Agents Chemother. 1997, 41, 1715-20). Removal of tetracycline from the medium [Tet (−)] results in the production of HBV. The levels of HBV in the culture supernatant fluids from cells treated with the compounds were compared with that of the untreated controls. Control cultures with tetracycline [Tet (+)] were also maintained to determine the basal levels of HBV expression. 3TC was included as positive control.
The median effective concentrations (EC50) ranges of several of the compounds described herein against HBV are shown in Table 3: […]

The next data set has as its system Vero. The experiment in a line: Cellular toxicity assay in Vero cells. Here is the method: as §1
For data set [2], the system named is HBV replication in HepAD38 cells. The experiment in a line: Drug-drug combination, inhibition of HBV replication in HepAD38 cells.
A further data set deals with HBV. The experiment in a line: Antiviral activity in HepG2-NTCP infectious system. The conditions noted are these: Hepatitis B virus, 264 h. Here is the method: (§2) Antiviral Activity in HepG2-NTCP Infectious System: HepG2-NTCP (Clone 7) cells were pretreated with antivirals for 30 min prior infection for 24 h with stock concentrated virus produced from HepAD38 at a dose of ˜300 virus genome equivalent (VGE) per cell in the presence of media containing 4% polyethylene glycol 8000 (PEG) and 2% DMSO. After 24 h, virus inoculum with or without antiviral agents were washed out from cells and media in the presence of 4% PEG and 2% DMSO, with or without antiviral agents were replenished every two days until day 11. Cells and supernatants were harvested and tested for intracellular HBV DNA, pregenomic (pg) RNA, surface RNA, and secreted HBeAg (ELISA).

Data set [3] in a line: Cytotoxicity (rDNA) in HepG2-NTCP infectious system. The conditions noted are these: human, HepG2-NTCP (Clone 7) cells infected with HBV, day 11, read-out: HBV DNA/rDNA CC50. As for the experimental part: as §2
Data set [4] is described as follows: Cellular toxicity assay in human PBM cells. The conditions noted are these: human, human PBM cells; read-out: Cytotoxicity; CC50 (μM) PBM. Here is the method: as §1
Data set [5] in a line: Cellular toxicity assay in HepG2 cells. The conditions noted are these: human, HepG2 cells; read-out: Cytotoxicity; CC50 (μM) HepG2. As for the experimental part:
as §1

The mark [6] stands for this setting: read-out: HBV DNA/rDNA EC50 (nM).
Where [7] appears, read: read-out: HBV RNA EC50, nM pgRNA.
Where [8] appears, read: read-out: HBV RNA EC50, nM sRNA.
The mark [9] stands for this setting: human PBM cells, read-out: Cytotoxicity, CC50 (μM) PBM.
The mark [10] stands for this setting: CEM cells, read-out: Cytotoxicity, CC50 (μM) CEM.
The mark [11] stands for this setting: HepG2 cells, read-out: Cytotoxicity, CC50 (μM) HepG2.
Setting [12] is: Vero cells, read-out: Cytotoxicity, CC50 (μM) VERO.

Read-outs that look alike come from different tables or passages of the source.

For the molecule `CCCCS(=N)(=O)CCC(N)C(=O)O` [L-buthionine-sulfoximine, reference compound], the “reduction of cellular GSH levels” value with Glutathione levels (GSH) (10 μM positive control) is recorded as 58%.
Regarding `CCOC(=O)C1=C(CNCc2cn(CCCCCCCCn3cc(CNC(=O)C(=O)c4c(C)c(C(=O)Nc5ccc(F)c(F)c5)n(C)c4C)nn3)nn2)NC(c2nccs2)=NC1c1ccc(F)cc1Br` (stereo not drawn) [Compound 20, Ethyl 4-(2-bromo-4-fluorophenyl)-6-((((1-(8-(4-((2-(5-((3,4-difluorophenyl)-carbamoyl)-1,2,4-trimethyl-1H-pyrrol-3-yl)-2-oxoacelamido)methyl)-1H-1,2,3-triazol-1-yl)octyl)-1H-1,2,3-triazol-4-yl)methyl)amino)methyl)-2-(thiazol-2-yl)-1,4-dihydropyrimidine-5-carboxylate], the CC50 with human PBM is 33 µM; in data set [1], over 100 µM; with HepG2 cells it was over 100 µM; in the data set on Vero, over 100 µM. Moreover, in the data set with wild type HBV, the EC50 lay in the range of 10 to 100 nM. In the data set on wild type HBV, the EC90 (usually the point of the concentration-response curve where the effect stands at 90%) was 1000 to 10000 nM.
`C=C1[C@H](CO)[C@@H](O)C[C@@H]1n1cnc2c(=O)[nH]c(N)nc21` [ETV, Entecavir, reference compound]: the EC50 in data set [2] (Hepatitis B virus, HePAD38) is 0.04 nM; in the data set on HBV (setting [6]), under 1 nM; in the data set on HBV (setting [7]), over 1000 nM; in the data set on HBV (setting [8]), over 1000 nM; in the data set on HBV (read-out: HBeAg EC50, nM), over 1000 nM. Also, the EC90 in [2] (Hepatitis B virus, HePAD38) was found to be 12.9 nM. Further, in [3], the CC50 at 11 days is over 1000 nM.
Regarding `Cc1c(C(=O)C(=O)NCc2cn(CCCCCCCCCCCCn3cc(CNC(=O)C(=O)c4c(C)c(C(=O)Nc5ccc(F)c(F)c5)n(C)c4C)nn3)nn2)c(C)n(C)c1C(=O)Nc1ccc(F)c(F)c1` [Compound 53, 4,4′-(2,2′-(((Dodecane-1,12-diylbis(1H-1,2,3-triazole-1,4-diyl))bis(methylene))bis(azanediyl))bis(2-oxoacetyl))bis(N-(3,4-difluorophenyl)-1,3,5-trimethyl-1H-pyrrole-2-carboxamide)], the EC50 in data set [2] (HepAD38 cells, combinations at ratio 1:1, read-out: EC50) is 0.02 nM; with wild type HBV it was 0.1 to 1 nM. The EC90 in [2] (HepAD38 cells, combinations at ratio 1:1, read-out: EC90) was 5.29 nM; with wild type HBV, 10 to 100 nM. Further, the CC50 in the data set with human PBM (setting [9]) was 35 µM; in data set [1] (setting [10]), 45 µM; with HepG2 cells (setting [11]), over 100 µM; in the data set with Vero (setting [12]), over 100 µM.
As to `C#CCn1c(C)c(C(=O)C(=O)NC(C#C)(CC)CC)c(C)c1C(=O)Nc1ccc(F)c(F)c1` [Compound 115, N-(3,4-Difluorophenyl)-4-(2-((3-ethylpent-1-yn-3-yl)amino)-2-oxoacetyl)-3,5-dimethyl-1-(prop-2-yn-1-yl)-1H-pyrrole-2-carboxamide], in data set [4], the CC50 came to 45 µM. Moreover, the CC50 in data set [5] was found to be 35 µM. In the data set on wild type HBV (Hepatitis B virus), the EC50 is 0.1 to 1 nM. Besides, in the data set with Glutathione levels (GSH), the “GSH levels relative to untreated control” value was over 10 µM and the inhibition – broadly, how much of the control response was suppressed – at 10 µM was under 1%.
On to `Cc1c(C(=O)C(=O)NCc2cn(CCCCCCCCn3cc(CNC(=O)C(=O)c4c(C)c(C(=O)Nc5ccc(F)c(F)c5)n(C)c4C)nn3)nn2)c(C)n(C)c1C(=O)Nc1ccc(F)c(F)c1` [Compound 9, 4,4′-(2,2′-(((Octane-1,8-diylbis(1H-1,2,3-triazole-1,4-diyl))bis(methylene))bis(azanediyl))bis(2-oxoacetyl))bis(N-(3,4-difluorophenyl)-1,3,5-trimethyl-1H-pyrrole-2-carboxamide)], for which the CC50 in the data set with human PBM (setting [9]) was 26.4 µM; in data set [1] (setting [10]), over 100 µM; in the data set with HepG2 cells (setting [11]), over 100 µM; in the data set with Vero (setting [12]) it was over 100 µM. For the same molecule, the EC50 in the data set with wild type HBV is 100 to 1000 nM. The EC90 with wild type HBV was in the range of 1000 to 10000 nM.
For “4,4′-(2,2′-(((Tetradecane-1,14-diylbis(1H-1,2,3-triazole-1,4-diyl))bis(methylene)) bis(azanediyl)) bis(2-oxoacetyl))bis(N-(3,4-difluorophenyl)-1,3,5-trimethyl-1H-pyrrole-2-carboxamide) [Compound 80]”, the CC50 in the data set on human PBM (setting [9]) and in the data set with HepG2 cells (setting [11]) was over 100 µM in each case. For the same molecule, the EC50 in the data set with wild type HBV is 1 to 10 nM.
As for `O=C(NC(Br)=C(C(=O)N1CCCCC1)c1ccccc1OCCCCCCCCCCCCOc1ccccc1C(C(=O)N1CCCCC1)=C(Br)NC(=O)c1ccc([N+](=O)[O-])cc1)c1ccc([N+](=O)[O-])cc1` [Compound 28], the CC50 (with human PBM; in [1]; in the data set on HepG2 cells; in the data set with Vero) was over 100 µM in each case. For the same molecule, in the data set with wild type HBV, the EC50 lay within 1000 to 10000 nM.
For `C#CCNC(=O)C(=O)c1c(C)c(C(=O)Nc2ccc(F)c(F)c2)n(CC#C)c1C` [Compound 114, N-(3,4-Difluorophenyl)-3,5-dimethyl-4-(2-oxo-2-(prop-2-yn-1-ylamino)acetyl)-1-(prop-2-yn-1-yl)-1H-pyrrole-2-carboxamide], the CC50 in data set [4] and in [5] was over 100 µM throughout. Further, the EC50 in the data set on HBV (setting [6]) is 0.6 nM; with HBV (setting [7]) it was 79.6 nM; in the data set on HBV (setting [8]), 67.8 nM; with HBV (read-out: HBeAg EC50, nM), 488 nM; with wild type HBV (Hepatitis B virus), 0.1 to 1 nM. In addition, the CC50 at 11 days in data set [3] was over 1000 nM. Moreover, in the data set on Glutathione levels (GSH), the “GSH levels relative to untreated control” value is over 10 µM. Besides, the inhibition at 10 µM in the data set on Glutathione levels (GSH) was determined as 27%.
